Patent US20240293413A1, “COMPOUND AND METHOD FOR TREATING CHEMOTHERAPY-RELATED GASTROINTESTINAL SIDE EFFECTS” (ONQUALITY PHARMACEUTICALS CHINA LTD., priority 2021, published 2024)

Columns and labels:
Assay type in all cases: in vivo
[1] = tested on: diarrhea caused by a chemotherapeutic agent in Balb/c mice; assay: Examples 343-381 (Table 6): oral versus intravenous CDK inhibitor, relief of diarrhea caused by a chemotherapeutic agent; settings: Example 368, Topotecan (TP) intravenous injection 10 mg/kg single, 0.5 h before, cycle 10 days;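 note: percent of treated mice whose diarrhea grade fell below chemotherapy-group average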
Text: Balb/c mice were fed for 1 week, and then divided into groups. The experiment was divided into a control group, a chemotherapeutic agent group, and an oral administration group of a CDK inhibitor, and an intravenous injection group of a CDK inhibitor, each of which comprised 10 mice, to perform the administration experiment, for which the administration dosage, mode, time and frequency were shown in Table 6. The control group: being injected/intragastrically administered with the same solvent as that used in the CDK inhibitor group (the time was shown in Table 6), and then being injected/intragastrically administered with the same solvent as that used in the chemotherapeutic agent group (the administration mode was shown in Table 6): the chemotherapeutic agent group: being injected/intragastrically administered with the same solvent as that used in the CDK inhibitor group (the time was shown in Table 6), and then being injected/intragastrically administered with the chemotherapeutic agent (the type, administration mode and dosage were shown in Table 6): the oral administration group of the CDK inhibitor: being intragastrically administered with the CDK inhibitor (the time was shown in Table 6), and then being administered with the chemotherapeutic agent (the mode and dosage were shown in Table 6): the intravenous injection group of the CDK inhibitor: being injected with the CDK inhibitor through tail vein (the time was shown in Table 6), and then being administered with the chemotherapeutic agent (the mode and dosage were shown in Table 6).
(§1) The diarrhea grading of mice was observed and recorded every day.

[2] = tested on: diarrhea caused by a chemotherapeutic agent in Balb/c mice; assay: Examples 230-271 (Table 4): oral CDK inhibitor, relief of diarrhea caused by a chemotherapeutic agent; settings: Doxorubicin (Dox) intramuscular injection 10 mg/kg single, CDK inhibitor oral 40 mg/kg single, cycle 10 days
Text: (§2) Balb/c mice were fed for 1 week, and then divided into groups. The experiment was divided into a control group, a chemotherapeutic agent group, and a CDK inhibitor group, each of which comprised 10 mice, to perform the administration experiment, for which the administration dosage, mode, time and frequency were shown in Table 4. The control group: being intragastrically administered with the same solvent as that used in the CDK inhibitor group (the time was shown in Table 4), and then being injected/intragastrically administered with the same solvent as that used in the chemotherapeutic agent group (the administration mode was shown in Table 4): the chemotherapeutic agent group: being intragastrically administered with the same solvent as that used in the CDK inhibitor group (the time was shown in Table 4), and then being injected/intragastrically administered with the chemotherapeutic agent (the type, administration mode and dosage were shown in Table 4): the CDK inhibitor group: being intragastrically administered with the CDK inhibitor (the time was shown in Table 4), and then being administered with the chemotherapeutic agent (the mode and dosage were shown in Table 4).
as §1

[3] = tested on: Chemotherapeutic agent-caused diarrhea models of Balb/c mice; assay: Examples 1-229 (Table 3): oral CDK inhibitor, relief of diarrhea caused by a chemotherapeutic agent;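 note: percent of treated mice whose diarrhea grade fell below chemotherapy-group average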
Text: Construction of mouse animal models: Chemotherapeutic agent-caused diarrhea models of Balb/c mice were constructed according to the administration mode and frequency of the chemotherapeutic agent as shown in Table 3.
as §2, with “in Table 3. The control” for “in Table 4. The control”, “in Table 3), and then” for “in Table 4), and then”, “in Table 3): the chemotherapeutic” for “in Table 4): the chemotherapeutic”, “in Table 3); the CDK” for “in Table 4): the CDK”, “in Table 3).” for “in Table 4).”
as §1

[4] = tested on: constipation caused by a chemotherapeutic agent in Balb/c mice; assay: Examples 406-443 (Table 8): various administration modes of the CDK inhibitor, relief of constipation caused by a chemotherapeutic agent; settings: for Relative remission rate of other administration mode / Relative remission rate of oral administration: cycle 8 days; for improvement of constipation by oral administration, intraperitoneal injection, intramuscular injection, local administration: constipation caused by doxorubicin, etoposide, etoposide plus cisplatin, carboplatin, gemcitabine, gemcitabine plus carboplatin, under certain conditions, oral most significant;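 for Relative remission rate of oral administration: percent of treated mice relieved versus chemotherapy group by feces reduction rate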;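 for Relative remission rate of other administration mode: percent of treated mice relieved versus chemotherapy group by feces reduction rate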
Text: Balb/c mice were fed for 1 week, and then divided into groups. The experiment was divided into a control group, a chemotherapeutic agent group, CDK inhibitor groups (including an oral administration group of a CDK inhibitor, an intravenous injection group of a CDK inhibitor, an intraperitoneal injection group of a CDK inhibitor, an intramuscular injection group of a CDK inhibitor, a local administration group of a CDK inhibitor), each of which comprised 10 mice, to perform the administration experiment, for which the administration dosage, mode, time and frequency were shown in Table 8. The control group: being administered with the same solvent as that used in the CDK inhibitor group (the time and mode were shown in Table 8), and then being injected/intragastrically administered with the same solvent as that used in the chemotherapeutic agent group (the administration mode was shown in Table 8): the chemotherapeutic agent group: being administered with the same solvent as that used in the CDK inhibitor group (the time and mode were shown in Table 8), and then being injected/intragastrically administered with the chemotherapeutic agent (the type, administration mode and dosage were shown in Table 8): the oral administration group of the CDK inhibitor: being intragastrically administered with the CDK inhibitor (the time was shown in Table 8), and then being administered with the chemotherapeutic agent (the mode and dosage were shown in Table 8): the intravenous injection group of the CDK inhibitor: being injected with the CDK inhibitor through tail vein (the time was shown in Table 8), and then being administered with the chemotherapeutic agent (the mode and dosage were shown in Table 8): the intraperitoneal injection group of the CDK inhibitor: being intraperitoneally injected with the CDK inhibitor (the time was shown in Table 8), and then being administered with the chemotherapeutic agent (the mode and dosage were shown in Table 8): the intramuscular injection group of the CDK inhibitor: being intramuscularly injected with the CDK inhibitor (the time was shown in Table 8), and then being administered with the chemotherapeutic agent (the mode and dosage were shown in Table 8); and the local administration group of the CDK inhibitor: the hair on the abdomen of mice was shaved (about 2 cm*2 cm), being applied with the CDK inhibitor (the time was shown in Table 8), and then being administered with the chemotherapeutic agent (the mode and dosage were shown in Table 8).
(§3) Feces reduction rate (%)=(the control group−the chemotherapeutic agent group or the CDK inhibitor group)/the control group*100%
(§4) The feces amount of mice within 3 hours was observed and recorded every day.

[5] = tested on: Chemotherapeutic agent-caused constipation models of Balb/c mice; assay: Examples 272-342 (Table 5): oral CDK inhibitor, relief of constipation caused by a chemotherapeutic agent; settings: cycle 8 days;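 note: percent of treated mice relieved versus chemotherapy group by feces reduction rate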
Text: Construction of mouse animal models: Chemotherapeutic agent-caused constipation models of Balb/c mice were constructed according to the administration mode and frequency of the chemotherapeutic agent as shown in Table 5.
Balb/c mice were fed for 1 week, and then divided into groups. The experiment was divided into a control group, a chemotherapeutic agent group, and a CDK inhibitor group, each of which comprised 10 mice, to perform the administration experiment, for which the administration dosage, mode, time and frequency were shown in Table 5. The control group: being intragastrically administered with the same solvent as that used in the CDK inhibitor group (the time was shown in Table 5), and then being injected/intragastrically administered with the same solvent as that used in the chemotherapeutic agent group (the administration mode was shown in Table 5): the chemotherapeutic agent group: being intragastrically administered with the same solvent as that used in the CDK inhibitor group (the time was shown in […]), and then being injected/intragastrically administered with the chemotherapeutic agent (the type, administration mode and dosage were shown in Table 5): the CDK inhibitor group: being intragastrically administered with the CDK inhibitor (the time was shown in Table 5), and then being administered with the chemotherapeutic agent (the mode and dosage were shown in Table 5).
as §3, §4

CCc1cnn2c(NCc3ccc[n+]([O-])c3)cc(N3CCCC[C@H]3CCO)nc12 [Dinaciclib]
Relative remission rate ([1]; CDK inhibitor intravenous injection 40 mg/kg single): 10%
Relative remission rate ([1]; CDK inhibitor oral 40 mg/kg single): 20%
Relative remission rate ([2]; Example 240, 0.5 h before): 30%
Relative remission rate ([2]; Example 241, 12 h before): 20%
Relative remission rate ([2]; Example 242, 24 h before): 0%
Relative remission rate (%) ([3]; Example 131, Docetaxel (DTX) intraperitoneal injection 10 mg/kg single, CDK inhibitor oral 40 mg/kg single 0.5 h before, cycle 8 days): 10%
Relative remission rate (%) ([3]; Example 132, Docetaxel (DTX) intraperitoneal injection 10 mg/kg single, CDK inhibitor oral 40 mg/kg single 1 h before, cycle 8 days): 10%
Relative remission rate (%) ([3]; Example 133, Docetaxel (DTX) intraperitoneal injection 10 mg/kg single, CDK inhibitor oral 40 mg/kg single 2 h before, cycle 8 days): 20%
Relative remission rate (%) ([3]; Example 134, Docetaxel (DTX) intraperitoneal injection 10 mg/kg single, CDK inhibitor oral 40 mg/kg single 4 h before, cycle 8 days): 20%
Relative remission rate (%) ([3]; Example 135, Docetaxel (DTX) intraperitoneal injection 10 mg/kg single, CDK inhibitor oral 40 mg/kg single 6 h before, cycle 8 days): 30%
Relative remission rate (%) ([3]; Example 136, Docetaxel (DTX) intraperitoneal injection 10 mg/kg single, CDK inhibitor oral 40 mg/kg single 8 h before, cycle 8 days): 30%
Relative remission rate (%) ([3]; Example 137, Docetaxel (DTX) intraperitoneal injection 10 mg/kg single, CDK inhibitor oral 40 mg/kg single 10 h before, cycle 8 days): 30%
Relative remission rate (%) ([3]; Example 138, Docetaxel (DTX) intraperitoneal injection 10 mg/kg single, CDK inhibitor oral 40 mg/kg single 12 h before, cycle 8 days): 20%
Relative remission rate (%) ([3]; Example 139, Docetaxel (DTX) intraperitoneal injection 10 mg/kg single, CDK inhibitor oral 40 mg/kg single 14 h before, cycle 8 days): 20%
Relative remission rate (%) ([3]; Example 140, Docetaxel (DTX) intraperitoneal injection 10 mg/kg single, CDK inhibitor oral 40 mg/kg single 16 h before, cycle 8 days): 40%
Relative remission rate (%) ([3]; Example 141, Docetaxel (DTX) intraperitoneal injection 10 mg/kg single, CDK inhibitor oral 40 mg/kg single 18 h before, cycle 8 days): 30%
Relative remission rate (%) ([3]; Example 142, Docetaxel (DTX) intraperitoneal injection 10 mg/kg single, CDK inhibitor oral 40 mg/kg single 20 h before, cycle 8 days): 30%
Relative remission rate (%) ([3]; Example 143, Docetaxel (DTX) intraperitoneal injection 10 mg/kg single, CDK inhibitor oral 40 mg/kg single 22 h before, cycle 8 days): 20%
Relative remission rate (%) ([3]; Example 144, Docetaxel (DTX) intraperitoneal injection 10 mg/kg single, CDK inhibitor oral 40 mg/kg single 24 h before, cycle 8 days): 10%
Relative remission rate (%) ([3]; Example 145, Docetaxel (DTX) intraperitoneal injection 10 mg/kg single, CDK inhibitor oral 40 mg/kg single 48 h before, cycle 8 days): 0%
Relative remission rate (%) ([3]; Example 204, Gemcitabine 60 mg/kg and paclitaxel 10 mg/kg intraperitoneal injection single, CDK inhibitor oral 70 mg/kg single, 4 h before, 8 days): 30%

Roniciclib
Relative remission rate of other administration mode ([4]; Example 420, Etoposide (Etop1) intravenous injection 100 mg/kg single, CDK inhibitor intraperitoneal injection 100 mg/kg single, 1 h before): 10%
Relative remission rate of oral administration ([4]; Example 420, Etoposide (Etop1) intravenous injection 100 mg/kg single, CDK inhibitor oral 1 mg/kg single, 1 h before): 20%
improvement of constipation by oral administration, intraperitoneal injection, intramuscular injection, local administration [4]: can significantly improve constipation
Relative remission rate ([5]; Example 322, Docetaxel (DTX) intramuscular injection 20 mg/kg single, CDK inhibitor oral 1 mg/kg single, 5 h before): 10%
Relative remission rate (%) ([3]; Example 73, Oxaliplatin intraperitoneal injection 20 mg/kg single, CDK inhibitor oral 10 mg/kg single 6 h before, cycle 8 days): 30%
Relative remission rate (%) ([3]; Example 117, Irinotecan (CPT-11) intraperitoneal injection 240 mg/kg single, CDK inhibitor oral 10 mg/kg single 6 h before, cycle 7 days): 20%

CC[C@H](CO)Nc1nc(NCc2ccccc2)c2ncn(C(C)C)c2n1 [Seliciclib]
Relative remission rate of other administration mode ([4]; Example 442, Gemcitabine and Carboplatin oral administration 300 (G) 200 (C) mg/kg single, CDK inhibitor local administration 400 mg/kg single, 4 h before): 10%
Relative remission rate of oral administration ([4]; Example 442, Gemcitabine and Carboplatin oral administration 300 (G) 200 (C) mg/kg single, CDK inhibitor oral 400 mg/kg single, 4 h before): 20%
Relative remission rate of other administration mode ([4]; Example 443, Gemcitabine and Carboplatin oral administration 300 (G) 200 (C) mg/kg single, CDK inhibitor local administration 400 mg/kg single, 8 h before): 10%
Relative remission rate of oral administration ([4]; Example 443, Gemcitabine and Carboplatin oral administration 300 (G) 200 (C) mg/kg single, CDK inhibitor oral 400 mg/kg single, 8 h before): 20%
improvement of constipation by oral administration, intraperitoneal injection, intramuscular injection, local administration [4]: can significantly improve constipation
Relative remission rate ([5]; Example 321, Docetaxel (DTX) oral administration 30 mg/kg single, CDK inhibitor oral 400 mg/kg single, 3 h before): 20%
Relative remission rate (%) ([3]; Example 46, Fluorouracil (5-Fu) intravenous injection 175 mg/kg single, CDK inhibitor oral 250 mg/kg single 2 h before, cycle 10 days): 30%
Relative remission rate (%) ([3]; Example 118, Irinotecan (CPT-11) intraperitoneal injection 240 mg/kg single, CDK inhibitor oral 250 mg/kg single 6 h before, cycle 7 days): 30%
Relative remission rate (%) ([3]; Example 195, Gemcitabine 60 mg/kg and paclitaxel 10 mg/kg intravenous injection single, CDK inhibitor oral 400 mg/kg single, 0.5 h before, 8 days): 30%
Relative remission rate (%) ([3]; Example 199, Gemcitabine 60 mg/kg and paclitaxel 10 mg/kg intravenous injection single, CDK inhibitor oral 250 mg/kg single, 2 h before, 8 days): 20%
Relative remission rate (%) ([3]; Example 200, Gemcitabine 60 mg/kg and paclitaxel 10 mg/kg intraperitoneal injection single, CDK inhibitor oral 250 mg/kg single, 6 h before, 8 days): 40%
